Data: patent US20180057447A1, “METHYL MENTHOL DERIVATIVE AND COOLING AGENT COMPOSITION CONTAINING SAME” (TAKASAGO INTERNATIONAL CORPORATION, priority 2015, published 2018)
Entries after “also recorded” stand apart in the source; their conditions may differ. Values belong to the molecule of their own block, whether it stands above or below them.

Experiments:
[1] = Evaluation of cool feeling intensity (EC50, with reference to NPL 6); format: cell-based; settings: index of the cool feeling intensity; read-out: EC50 (concentration at which a cool feeling is felt)
Procedure: The measurement of the cool feeling intensity was performed with reference to NPL 6. A concentration EC50 at which a cool feeling is felt is shown below as the index of the cool feeling intensity.

[2] = Sensory evaluation of aqueous solutions against comparative compounds; format: in vivo; settings: for cool feeling characteristic: rac-14a-38 vs Comparative Compound 1 (Evercool 180); for course / persistence of cool feeling intensity / start of cool feeling / taste and accompanying sensations (umami, salty, bitterness, numbness, fiery feeling): vs Comparative Compound 3
Procedure: Sensory Evaluation was performed by comparison with Comparative Compound 1 (Evercool 180), which has a strong cool feeling among conventionally known compounds, and has a similar structure. Each of Exemplary Compound rac-14a-38 and Comparative Compound 1 was prepared as a 2 ppm aqueous solution, and the evaluation was performed.
Sensory Evaluation was performed by comparison with Comparative Compound 2, which is conventionally known, and has a similar structure. Each of Exemplary Compound rac-14a-23 and Comparative Compound 2 was prepared as a 30 ppm aqueous solution, and the evaluation was performed.
Sensory Evaluation was performed by comparison with Comparative Compound 3, which is conventionally known, and has a similar structure. Each of Exemplary Compound rac-14a-34 and Comparative Compound 3 was prepared as a 30 ppm aqueous solution, and the evaluation was performed.
Sensory Evaluation was performed by comparison with Comparative Compound 3, which is conventionally known, and has a similar structure. Each of Exemplary Compound rac-14a-40 and Comparative Compound 3 was prepared as a 30 ppm aqueous solution, and the evaluation was performed.
Sensory Evaluation was performed by comparison with Comparative Compound 3 which is conventionally known. Each of Exemplary Compound rac-14a-46 and Comparative Compound 3 was prepared as a 30 ppm aqueous solution, and the evaluation was performed.
Sensory Evaluation was performed by comparison with Comparative Compound 3 which is conventionally known. Each of Exemplary Compound rac-14a-41 and Comparative Compound 3 was prepared as a 30 ppm aqueous solution, and the evaluation was performed.
Sensory Evaluation was performed by comparison with Comparative Compound 3 which is conventionally known. Each of Exemplary Compound rac-14a-47 and Comparative Compound 3 was prepared as a 30 ppm aqueous solution, and the evaluation was performed.

[3] = 30 ppm aqueous solution, vs Comparative Compound 2

SMILES: COC(=O)c1cccc(NC(=O)C2CC(C)(C)CCC2C(C)C)c1 (racemic) [rac-14a-44, methyl 3-(2-isopropyl-5,5-dimethylcyclohexanecarboxamide) benzoate]
EC50 [1]: 5240 nM

SMILES: CC(C)[C@@H]1CC[C@@H](C)C[C@H]1C(=O)Nc1ccc(CC#N)cc1 [Evercool 180, reference compound]
cool feeling characteristic ([2]; 2 ppm aqueous solution): menthol-like characteristic

SMILES: CC(C)[C@H]1CCC(C)(C)C[C@@H]1OC(=O)[C@H](C)O [(1S,2R)-17a-2, (S)-((1S,2R)-2-isopropyl-5,5-dimethylcyclohexyl)2-hydroxypropanoate]
EC50 [1]: 24500 nM

SMILES: COC(=O)c1ccc(NC(=O)C2CC(C)(C)CCC2C(C)C)c(C)c1 (racemic) [rac-14a-46, methyl 4-(2-isopropyl-5,5-dimethylcyclohexanecarboxamide)-3-methylbenzoate]
EC50 [1]: 1500 nM
course / persistence of cool feeling intensity ([2]; 30 ppm aqueous solution): the cool feeling intensity persisted
start of cool feeling ([2]; 30 ppm aqueous solution): the start was late
taste and accompanying sensations (umami, salty, bitterness, numbness, fiery feeling) ([2]; 30 ppm aqueous solution): clear and light touch characteristic of an ester

SMILES: CC(C)C1CCC(C)(C)CC1C(=O)Nc1ccc(CC#N)cc1 (racemic) [rac-14a-38, N-(4-(cyanomethyl)phenyl)-2-isopropyl-5,5-dimethylcyclohexanecarboxamide]
EC50 [1]: 240 nM
lapse until cool feeling exhibited after put in the mouth ([2]; 2 ppm aqueous solution): 1 minute to several minutes
persistence of cool feeling ([2]; 2 ppm aqueous solution): ≥ 30 min
cool feeling characteristic ([2]; 2 ppm aqueous solution): more natural than that of Comparative Compound 1; also recorded: only a cool feeling was felt; also recorded: sharper than that of Comparative Compound 1
melting point: 121 to 122 °C

SMILES: COc1ccc(NC(=O)C2CC(C)(C)CCC2C(C)C)cc1O (racemic) [rac-14a-41, N-(3-hydroxy-4-methoxyphenyl)-2-isopropyl-5,5-dimethylcyclohexanecarboxamide]
EC50 [1]: 27 nM
course / persistence of cool feeling intensity ([2]; 30 ppm aqueous solution): also has persistence
start of cool feeling ([2]; 30 ppm aqueous solution): slightly earlier than Comparative Compound 3
taste and accompanying sensations (umami, salty, bitterness, numbness, fiery feeling) ([2]; 30 ppm aqueous solution): Chemical-like bitterness was somewhat felt as a first taste; also recorded: accompanied by a clear feeling than a fiery feeling
melting point: 93 to 98 °C

SMILES: CCNC(=O)C1CC(C)(C)CCC1C(C)C (racemic) [rac-14a-2, N-ethyl-2-isopropyl-5,5-dimethylcyclohexanecarboxamide]
EC50 [1]: 2270 nM
melting point: 101 to 105 °C

Further molecules by falling EC50 [1], results first:

EC50 [1]: 78500 nM
SMILES: CC(C)[C@@H]1CCC(C)(C)C[C@H]1OC(=O)[C@H](C)O [(1R,2S)-17a-2, (S)-((1R,2S)-2-isopropyl-5,5-dimethylcyclohexyl)2-hydroxypropanoate]

EC50 [1]: 64700 nM
SMILES: CC(C)[C@@H]1CCC(C)(C)C[C@H]1OC(=O)[C@H](C)O (racemic) [rac-17a-2, (S)-(trans-2-isopropyl-5,5-dimethylcyclohexyl)2-hydroxypropanoate]

EC50 [1]: 32400 nM
SMILES: CC(C)C1CCC(C)(C)CC12OCC(CO)O2 (racemic) [(1R,2S)-19a-1, (6-isopropyl-9,9-dimethyl-1,4-dioxaspiro[4.5]decan-2-yl)methanol]

EC50 [1]: 15500 nM
melting point: 141 to 145 °C
SMILES: CC(C)C1CCC(C)(C)CC1C(N)=O (stereo not shown) [14a-50, 2-isopropyl-5,5-dimethylcyclohexanecarboxamide]

EC50 [1]: 3530 nM
SMILES: COC(=O)c1ccc(NC(=O)C2CC(C)(C)CCC2C(C)C)cc1 (racemic) [rac-14a-45, methyl 4-(2-isopropyl-5,5-dimethylcyclohexanecarboxamide) benzoate]

EC50 [1]: 490 nM
melting point: 104 to 107 °C
SMILES: CCOC(=O)CNC(=O)C1CC(C)(C)CCC1C(C)C (racemic) [rac-14a-23, ethyl 2-(2-isopropyl-5,5-dimethylcyclohexanecarboxamide) acetate]
cool feeling intensity peak [2, 3]: comparable to that of Comparative Compound 2
exhibition of a cool feeling (start) [2, 3]: later than Comparative Compound 2
persistence of cool feeling [2, 3]: superior to that of Comparative Compound 2
sharp cool feeling stimulation [2, 3]: stronger than that in Comparative Compound 2

EC50 [1]: 140 nM
SMILES: CC(C)[C@@H]1CCC(C)(C)C[C@H]1C(=O)Nc1ccc(CC#N)cc1 [14a-38i, (−)-trans-N-(4-(cyanomethyl)phenyl)-2-isopropyl-5,5-dimethylcyclohexanecarboxamide]

EC50 [1]: 130 nM
melting point: 104 to 107 °C
SMILES: CC(C)C1CCC(C)(C)CC1C(=O)NCCc1ccccn1 (racemic) [rac-14a-16, 2-isopropyl-5,5-dimethyl-N-(2-(pyridin-2-yl)ethyl)cyclohexanecarboxamide]

EC50 [1]: 79 nM
SMILES: COc1ccc(NC(=O)C2CC(C)(C)CCC2C(C)C)c(C)c1 (racemic) [rac-14a-40, 2-isopropyl-N-(4-methoxy-2-methylphenyl)-5,5-dimethylcyclohexanecarboxamide]
taste and accompanying sensations (umami, salty, bitterness, numbness, fiery feeling) ([2]; 30 ppm aqueous solution): stronger and shaper than those of Comparative Compound 3; also recorded: Umami and a numbness feeling were exhibited simultaneously

EC50 [1]: 55 nM
melting point: 115 to 118 °C
SMILES: COc1ccc(NC(=O)C2CC(C)(C)CCC2C(C)C)cc1 (racemic) [rac-14a-34, 2-isopropyl-N-(4-methoxyphenyl)-5,5-dimethylcyclohexanecarboxamide]
course / persistence of cool feeling intensity ([2]; 30 ppm aqueous solution): increased over time
start of cool feeling ([2]; 30 ppm aqueous solution): later than Comparative Compound 3
taste and accompanying sensations (umami, salty, bitterness, numbness, fiery feeling) ([2]; 30 ppm aqueous solution): comparable to that of Comparative Compound 3; also recorded: the secretion of saliva continued

EC50 [1]: 48 nM
melting point: 165 to 172 °C
SMILES: CC(C)C1CCC(C)(C)CC1C(=O)Nc1ccc(CO)cc1 (racemic) [rac-14a-47, N-(4-(hydroxymethyl)phenyl)-2-isopropyl-5,5-dimethylcyclohexanecarboxamide]
course / persistence of cool feeling intensity ([2]; 30 ppm aqueous solution): also has persistence
start of cool feeling ([2]; 30 ppm aqueous solution): early start of a cool feeling
taste and accompanying sensations (umami, salty, bitterness, numbness, fiery feeling) ([2]; 30 ppm aqueous solution): stronger umami was felt than that in Comparative Compound 3; also recorded: accompanied by a fiery feeling (burning feeling)
